Like-named read-outs stand apart in the source and are kept apart here.
Biological target: T1, MCR-1 (Homo sapiens, UniProt Q01726)
T1 construct: expressed in transfected cells; host or cells: HEK 293
Experiment: Melanocortin receptor binding assay, competition with 125I-HP 467, HEK 293 cells expressing hMCR-1
Conditions: for % Disp. MC-1 10 μM: displacement of 125I-HP 467 at 10 μM isoquinoline compound; for IC50: read-out: MC-1 IC50; for % Disp. of 125I-HP 467 (first of duplicate) / % Disp. of 125I-HP 467 (second of duplicate): 10 μM isoquinoline compound; for % Disp. of 125I-HP 467 (first of duplicate): HEK 293 cells expressing MCR-1, duplicate 1; for % Disp. of 125I-HP 467 (second of duplicate): HEK 293 cells expressing MCR-1, duplicate 2
Description: All cell culture media and reagents were obtained from GibcoBRL (Gaithersburg Md.), except for COSMIC CALF SERUM (HyClone; Logan Utah).
Cells were suspended in PBS, 10% COSMIC CALF SERUM and 1 mM CaCl2. Cell suspensions were prepared at a density of 2×10^4 cells/ml for HEK 293 cells expressing hMCR-3, hMCR-4 or hMCR-5, and 1×10^5 cells/ml for HEK 293 cells expressing hMCR-1. Suspensions were placed in a water bath and allowed to warm to 37° C. for 1 hr.
Binding assays were performed in a total volume of 250 μl for HEK 293 cells. […] To each tube was added 4×10^3 HEK 293 cells expressing hMCR-3, hMCR-4 or hMCR-5, or 2×10^4 cells expressing hMCR-1. Assays were incubated for 2.5 hr at 37° C.
GF/B filter plates were prepared by soaking for at least one hour in 5 mg/ml BSA and 10 mM CaCl2. Assays were filtered using a Brandel 96-well cell harvester (Brandel Inc.; Gaithersburg, Md.). The filters were washed four times with cold 50 mM Tris, pH 7.4, the filter plates were dehydrated for 2 hr and 35 μl of MICROSCINT was added to each well. Filter plates were counted using a Packard Topcount (Packard Instrument Co.) and data analyzed using GraphPad PRISM v2.0 (GraphPad Software Inc.; San Diego Calif.) and Microsoft EXCEL v5.0a (Microsoft Corp.; Redmond Wash.).
To assay isoquinoline compounds, binding assays were performed in duplicate in a 96 well format. […] A 0.2 ml aliquot of suspended cells was added to each well to give the cell numbers indicate above, and the cells were incubated at 37° C. for 2.5 hr. Cells were harvested on GF/B filter plates as described above and counted.

[1] = inhibition of binding of 125I-HP 467, HEK 293 cells expressing MCR-1
[2] = competition with 125I-HP 467, HEK 293 cells expressing MCR-1

T1 sequence (Q01726 whole entry): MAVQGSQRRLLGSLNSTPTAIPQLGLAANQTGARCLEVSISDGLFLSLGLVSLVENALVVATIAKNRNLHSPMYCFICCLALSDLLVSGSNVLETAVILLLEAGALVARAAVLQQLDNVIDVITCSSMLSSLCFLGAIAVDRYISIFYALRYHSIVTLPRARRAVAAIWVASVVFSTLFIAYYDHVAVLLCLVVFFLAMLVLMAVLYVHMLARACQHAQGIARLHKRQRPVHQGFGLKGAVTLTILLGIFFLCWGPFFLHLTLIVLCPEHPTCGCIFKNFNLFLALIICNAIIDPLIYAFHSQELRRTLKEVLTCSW

SMILES | % Disp. MC-1 10 μM (first of duplicate) | % Disp. MC-1 10 μM (second of duplicate) | IC50 [1] | further results
COc1ccc(C2C(CNC3CCCCC3)c3ccccc3CN2CCN)cc1S(=O)(=O)O (stereo not shown) [TRG 2405-88] | 5.5% | 0% | – | –
NCCN1Cc2ccccc2C(CNC2CCCCC2)C1c1ccncc1 (stereo not shown) [TRG 2405-74] | 35.3% | 0% | – | –
COc1cc(OC)cc(C2C(CNC3CCCCC3)c3ccccc3CN2CCN)c1 (stereo not shown) [TRG 2405-31] | 40.7% | 48.5% | – | –
NCCN1Cc2ccccc2C(CNC2CCCCC2)C1c1ccc(O)c(O)c1 (stereo not shown) [TRG 2405-25] | 21.6% | 31.9% | – | –
CNC(CN)CN1Cc2ccccc2C(CNC2CCCCC2)C1c1cc(C(F)(F)F)cc(C(F)(F)F)c1 (mixture of isomers) [TRG 2405-118] | 47.3% | 58.9% | – | –
COCCNC(CN)CCCN1Cc2ccccc2C(CNCCc2ccccc2)C1c1ccc(-c2ccccc2)cc1 (stereo not shown) [TRG 2411-123] | – | – | – | IC50 [2]: 1540 nM
CCCCNC(CN)CCCCN1Cc2ccccc2C(CN)C1c1ccc(NCC)cc1 (stereo not shown) [TRG 2411-61] | – | – | – | IC50 [2]: 110 nM
CNC(CN)CN1Cc2ccccc2C(CNC2CCCCC2)C1c1cccc(OC)c1 (stereo not shown) [TRG 2405-135] | 43.9% | 39.7% | – | –
CCNc1ccc(C2C(CNC3CCCCC3)c3ccccc3CN2CC(CN)NC)cc1 (stereo not shown) [TRG 2405-149] | 30.1% | 52.3% | – | –
CNC(CN)CCCCN1Cc2ccccc2C(CNC2CCCCC2)C1c1ccco1 (stereo not shown) [TRG 2405-197] | – | – | – | % Disp. of 125I-HP 467 (first of duplicate): 41.9%; % Disp. of 125I-HP 467 (second of duplicate): 41.3%
CCCCNc1ccc(C2C(CNCCc3ccccc3)c3ccccc3CN2CCCCC(CN)NCCc2ccc(OC)cc2)cc1 (mixture of isomers) [TRG 2411-79] | – | – | – | IC50 [2]: 370 nM
CNC(CN)CN1Cc2ccccc2C(CNC2CCCCC2)C1c1ccc2cccc(O)c2n1 (stereo not shown) [TRG 2405-172] | – | – | – | % Disp. of 125I-HP 467 (first of duplicate): 59.4%; % Disp. of 125I-HP 467 (second of duplicate): 43.9%
CNC(CN)CN1Cc2ccccc2C(CNC2CCCCC2)C1c1ccc(CN)cc1 (stereo not shown) [TRG 2405-154] | 43.1% | 54.8% | – | –
CCCOc1ccc(C2C(CNC3CCCCC3)c3ccccc3CN2CCN)cc1 (stereo not shown) [TRG 2405-73] | 60.1% | 60.5% | – | –
NCCN1Cc2ccccc2C(CNC2CCCCC2)C1c1ccccc1Br (stereo not shown) [TRG 2405-12] | 38.7% | 41.8% | – | –
Cc1ccc(C2C(CNC3CCCCC3)c3ccccc3CN2CCN)s1 (stereo not shown) [TRG 2405-78] | 33.3% | 40.8% | – | –
CCNc1ccc(C2C(CN)c3ccccc3CN2CCCCC(CN)NCCN)cc1 (stereo not shown) [TRG 2411-71] | – | – | – | IC50 [2]: 390 nM
CNC(CN)CCCCN1Cc2ccccc2C(CNC2CCCCC2)C1c1ccccc1OC (stereo not shown) [TRG 2405-199] | – | – | – | % Disp. of 125I-HP 467 (first of duplicate): 71.5%; % Disp. of 125I-HP 467 (second of duplicate): 71.4%
CNC(CN)CN1Cc2ccccc2C(CNC2CCCCC2)C1c1cccs1 (stereo not shown) [TRG 2405-113] | 40% | 58.5% | – | –
CCCOc1ccc(C2C(CNC3CCCCC3)c3ccccc3CN2CC(CN)NC)cc1 (stereo not shown) [TRG 2405-163] | 62.4% | 58.1% | – | –

SMILES | % Disp. MC-1 10 μM (first of duplicate) | % Disp. MC-1 10 μM (second of duplicate) | IC50 [1] | further results
CNC(CN)CCCCN1Cc2ccccc2C(CNC2CCCCC2)C1c1cccc2c1OCO2 (stereo not shown) [TRG 2405-188] | – | – | – | % Disp. of 125I-HP 467 (first of duplicate): 66.9%; % Disp. of 125I-HP 467 (second of duplicate): 60.1%
CNC(C)CNC(CN)CCCCN1Cc2ccccc2C(CNCCc2ccccc2)C1c1ccc(-c2ccccc2)cc1 (stereo not shown) [TRG 2411-6] | – | – | – | IC50 [2]: 470 nM
CNC(CN)CN1Cc2ccccc2C(CNC2CCCCC2)C1c1ccc2c(c1)OCCO2 (stereo not shown) [TRG 2405-93] | 43.2% | 56.2% | – | –
NCCN1Cc2ccccc2C(CNC2CCCCC2)C1c1cccc2ccccc12 (stereo not shown) [TRG 2405-5] | 53.6% | 53.6% | – | –
NCCNC(CN)CCCCN1Cc2ccccc2C(CN)C1c1ccc(-c2ccccc2)cc1 (stereo not shown) [TRG 2411-27] | – | – | – | IC50 [2]: 660 nM
NCCN1Cc2ccccc2C(CNC2CCCCC2)C1c1ccccc1F (stereo not shown) [TRG 2405-16] | 26.8% | 40.3% | – | –
COc1ccc(Oc2cccc(C3C(CNC4CCCCC4)c4ccccc4CN3CCN)c2)cc1 (stereo not shown) [TRG 2405-34] | 55.6% | 56.1% | – | –
CNC(CN)CN1Cc2ccccc2C(CNC2CCCCC2)C1c1ccoc1 (stereo not shown) [TRG 2405-132] | 51.6% | 51.7% | – | –
NCCNC(CN)CCCN1Cc2ccccc2C(CN)C1c1ccc(-c2ccccc2)cc1 (stereo not shown) [TRG 2411-141] | – | – | – | IC50 [2]: 1150 nM
NCCN1Cc2ccccc2C(CNC2CCCCC2)C1c1ccc(F)c(F)c1F (stereo not shown) [TRG 2405-6] | 45.7% | 50% | – | –
CNC(CN)CN1Cc2ccccc2C(CNC2CCCCC2)C1c1ccc[nH]1 (stereo not shown) [TRG 2405-175] | – | – | – | % Disp. of 125I-HP 467 (first of duplicate): 68.5%; % Disp. of 125I-HP 467 (second of duplicate): 68.8%
CNC(CN)CCCCN1Cc2ccccc2C(CNC2CCCCC2)C1c1ccccn1 (stereo not shown) [TRG 2405-201] | – | – | – | % Disp. of 125I-HP 467 (first of duplicate): 61.1%; % Disp. of 125I-HP 467 (second of duplicate): 43.4%
COc1ccc(C2C(CNC3CCCCC3)c3ccccc3CN2CCN)cc1C (stereo not shown) [TRG 2405-46] | 46.8% | 40.3% | – | –
CNC(CN)CN1Cc2ccccc2C(CNC2CCCCC2)C1c1ccc(SC)cc1 (stereo not shown) [TRG 2405-147] | 31.6% | 38.9% | – | –
NCC(N)CCCN1Cc2ccccc2C(CN)C1c1ccc(-c2ccccc2)cc1 (mixture of isomers) [TRG 2411-136] | – | – | – | IC50 [2]: 1730 nM
CNC(C)CNC(CN)CCCN1Cc2ccccc2C(CN)C1c1ccc(-c2ccccc2)cc1 (mixture of isomers) [TRG 2411-142] | – | – | – | IC50 [2]: 1280 nM
CCn1c2ccccc2c2cc(C3C(CNC4CCCCC4)c4ccccc4CN3CCN)ccc21 (stereo not shown) [TRG 2405-83] | 39.1% | 46.9% | – | –
COCCNC(CN)CCCCN1Cc2ccccc2C(CNCCc2ccccc2)C1c1ccc(-c2ccccc2)cc1 (stereo not shown) [TRG 2411-10] | – | – | – | IC50 [2]: 1100 nM
CNC(CN)CN1Cc2ccccc2C(CNC2CCCCC2)C1c1ccco1 (stereo not shown) [TRG 2405-107] | 43.1% | 52.1% | – | –
NCCN1Cc2ccccc2C(CNC2CCCCC2)C1c1ccoc1 (stereo not shown) [TRG 2405-42] | 43.6% | 40.7% | – | –

Continued, in another order:

% Disp. MC-1 10 μM (first of duplicate) | % Disp. MC-1 10 μM (second of duplicate) | IC50 [1] | SMILES | further results
– | – | 220 nM | CCNc1ccc(C2C(CNCCc3ccccc3)c3ccccc3CN2CCCC(CN)NCCN)cc1 (stereo not shown) [TRG 2411-163] | –
– | – | 350 nM | CCCOc1ccc(C2C(CNCCc3ccccc3)c3ccccc3CN2CCCC(CN)NCCc2ccccc2)cc1 (stereo not shown) [TRG 2412-23] | –
– | – | 230 nM | CCNc1ccc(C2C(CNC3CCCCC3)c3ccccc3CN2CCCC(CN)NCCc2ccc(OC)cc2)cc1 (stereo not shown) [TRG 2411-168] | –
– | – | 500 nM | CCCCCc1ccc(C2C(CNCCc3ccccc3)c3ccccc3CN2CCCC(CN)NCCc2ccccc2)cc1 (stereo not shown) [TRG 2412-29] | –
– | – | 290 nM | CCNc1ccc(C2C(CN)c3ccccc3CN2CCCC(CN)NC)cc1 (stereo not shown) [TRG 2411-175] | –
– | – | 200 nM | CCNc1ccc(C2C(CN)c3ccccc3CN2CCCC(CN)NCc2ccccc2)cc1 (stereo not shown) [TRG 2411-182] | –
– | – | 90 nM | CCCCNC(CN)CCCN1Cc2ccccc2C(CNC2CCCCC2)C1c1ccc(NCC)cc1 (stereo not shown) [TRG 2411-165] | –
– | – | 820 nM | CCCCOc1ccc(C2C(CNCCc3ccccc3)c3ccccc3CN2CCCCC(CN)NCCc2ccccc2)cc1 (stereo not shown) [TRG 2412-11] | –
– | – | 60 nM | CCNc1ccc(C2C(CN)c3ccccc3CN2CCCC(CN)NCCN)cc1 (stereo not shown) [TRG 2411-187] | –
– | – | 110 nM | CCCCNc1ccc(C2C(CN)c3ccccc3CN2CCCC(N)CN)cc1 (stereo not shown) [TRG 2411-216] | –
– | – | 220 nM | CCNc1ccc(C2C(CN)c3ccccc3CN2CCCC(CN)NCC)cc1 (mixture of isomers) [TRG 2411-176] | –
– | – | 440 nM | CNCCNC(CN)CCCCN1Cc2ccccc2C(CNCCc2ccccc2)C1c1ccc(-c2ccccc2)cc1 (stereo not shown) [TRG 2413-1] | –
– | – | 190 nM | CCNc1ccc(C2C(CNCCc3ccccc3)c3ccccc3CN2CCCC(CN)NC)cc1 (stereo not shown) [TRG 2413-12] | –
– | – | 250 nM | CCCCNc1ccc(C2C(CNC3CCCCC3)c3ccccc3CN2CCCC(CN)NCCCC)cc1 (stereo not shown) [TRG 2411-205] | –
– | – | 540 nM | CCCCOc1ccc(C2C(CNCCc3ccccc3)c3ccccc3CN2CCCCC(CN)NCc2ccccc2)cc1 (stereo not shown) [TRG 2412-12] | –
– | – | 150 nM | CCOc1ccc(C2C(CNCCc3ccccc3)c3ccccc3CN2CCCC(CN)NCCc2ccccc2)cc1 (stereo not shown) [TRG 2412-20] | –
– | – | 310 nM | CCNc1ccc(C2C(CNC3CCCCC3)c3ccccc3CN2CCCC(CN)NCCc2ccccc2)cc1 (stereo not shown) [TRG 2413-10] | –
– | – | 130 nM | CCCCNc1ccc(C2C(CNCCc3ccccc3)c3ccccc3CN2CCCC(N)CN)cc1 (stereo not shown) [TRG 2411-188] | –
